Experimental data: patent US9469598B2, “Erythropoietin production-promoting agent” (SBI Pharmaceuticals Co., Ltd., priority 2011, dated 2016)
Where a name gives a salt, the structure may show the parent alone.

Tested on: HEP3B cells
Assay: Erythropoietin production by HEP3B cells with reduced erythropoietin production ability (ELISA of culture supernatant)
Format: cell-based, human
Details: 1% oxygen, 24 h
Excerpt: Erythropoietin production ability of erythropoietin producer cells were reduced by culturing the erythropoietin producer cells under hypoxic condition to allow artificial production of erythropoietin, and then adding inflammatory cytokine or uremia toxin.
TNF-α was employed as the inflammatory cytokine. In addition, indoxyl sulfate was employed as the uremic toxin. Indoxyl sulfate is thought to be the causative substance of uremic toxin, and is also the most commonly used uremia-related marker. Indoxyl sulfate in vivo is also a substance where tryptophan-derived indoles are sulfated and synthesized in the liver. Accordingly, a state of reduced erythropoietin production by addition of inflammatory cytokine or uremic toxin is a state of mimicked renal anemia.
In this Example, HEP3B cells which are liver cancer cells that produce erythropoietin of Groups I to VI with different culture conditions (from ATCC) were used. First, as a culturing step common to all 6 groups, about 300,000 HEP3B cells per well of a 12-well plate were cultured. The culture condition employed was culturing in RPMI1640 medium supplemented with 10% FCS/PC-SM at 37° C. under 20% oxygen condition. After 24 hours of culture, they were divided into the following culture conditions I to VI, and further cultured for 24 hours. Human recombinant TNF-a (rhTNF-a; Roche) was employed as TNF-α in the following.
After culturing for 24 hours under the above culture conditions I to VI, the culture supernatant was separated, and the concentration of erythropoietin contained in the culture supernatant was measured with “Human Erythropoietin ELISA kit” (from Bender MedSystems).

Cl.NCC(=O)CCC(=O)O [aminolevulinic acid hydrochloride, 5-aminolevulinic acid hydrochloride]
erythropoietin concentration in culture supernatant, Group (VI) vs Group (V) (1 mM indoxyl sulfate, 0.3 μM 5-aminolevulinic acid hydrochloride with 0.15 μM sodium ferrous citrate): significantly high erythropoietin concentration value compared to Group (V) | erythropoietin concentration in culture supernatant, Group (IV) vs Group (III) (220 U/ml TNF-α, 0.3 μM 5-aminolevulinic acid hydrochloride with 0.15 μM sodium ferrous citrate): significantly high erythropoietin concentration value compared to Group (III)

O=S(=O)(O)Oc1c[nH]c2ccccc12 [indoxyl sulfate]
erythropoietin concentration in culture supernatant, Group (V) vs Group (I) (1 mM indoxyl sulfate): decrease in the concentration of erythropoietin was observed

TNF-α
erythropoietin concentration in culture supernatant, Group (III) vs Group (I) (220 U/ml TNF-α): decrease in the concentration of erythropoietin was observed
